# Data: a melting point compilation (Tetko et al.; mined from patent text by program, amines drawn as free bases though some values may be those of a salt)
row,SMILES,melting point [°C]
1,c1ccc(Oc2ccc3[nH]c4c(c3c2)CNCC4)cc1,179
2,COc1ccccc1C1CC(=O)Oc2ccc(Cl)cc21 (configuration not stated),172 to 173
3,CC(CCCC(C)(C)O)C1CCC2C3C=CC4=CC(=O)C=CC4(C)C3CCC12C (configuration not stated),180 to 182
4,CSc1nc2ccc(Cl)cc2cc1C=O,154 to 155
5,N#Cc1ccc(N2CCC(CCCO)CC2)c2ccccc12,114 to 115
6,CCOC(=O)C1=C(C)NC(C)=C(C(=O)OCCN2CCN(C(c3ccc(C)cc3)c3ccc(C)cc3)CC2)C1c1cccc(OC)c1 (configuration not stated),75 to 78
7,COc1ccc(S(=O)(=O)c2cnc(C)nc2Nc2c(C)cc(C)cc2C)cc1,153 to 155
8,CN(C)CCNC(=O)N1CCN(c2ccc(Br)cc2)CC1,133 to 135
9,COc1ccccc1C(=O)Nc1nc(-c2ccccc2)c(-c2ccc(=O)n(C(C)C)n2)s1,> 250
10,CCC(CC)c1nn(-c2ccc(C(F)(F)F)cn2)cc1CCCOc1c(F)cccc1CC(=O)O,102 to 103
11,CCCc1nc2c(N)nc3ccccc3c2n1CCCCN(OC)C(N)=O,179 to 181
12,Cc1nn(-c2ccccn2)c2[nH]c3ccc(S(C)=O)cc3c(=O)c12 (configuration not stated),268 to 269
13,Nc1nc(-c2ccccc2)c(CCO)c2ncnn12,194 to 195
14,N#Cc1ccc(C(=O)Cc2ccc(C#N)cc2[N+](=O)[O-])cc1,188 to 190
15,O=S(=O)(On1nnc2ccccc21)c1ccccc1,83 to 84
16,CNCC1Cc2c(Cl)cc3c(c2O1)CCC3 (configuration not stated),58 to 60
17,CCOC(=O)c1nn(-c2ccc(OC)cc2)c2c1CCN(c1ccc(I)cc1)C2=O,173 to 175
18,Cn1cc(C(=O)O)c(=O)c2oc3ccc(Cl)cc3c(=O)c21,295 to 297
19,O=C1COc2ccc(CN3CCN(c4ccccc4)CC3)cc2N1,207 to 209
20,CCCCCCCCCCCCCCNC(=O)Nc1sc(C(=O)O)c(C)c1C(=O)OC(C)(C)C,176 to 178
21,O=C(O)C1CSC(c2ccccc2-c2ccccc2)N1 (mixture of isomers),190
22,O=Cc1c2ccccc2c(Cl)c2ccc(Cl)cc12,176
23,O=C(O)c1cn2c(n1)COc1ccccc1-2,256 to 258
24,CC1(C)C=C(N2CCCC2=O)c2cc(Cl)ccc2O1,123 to 125
25,CCCCS(=O)(=O)NC(=O)N1CC1C#N (configuration not stated),80 to 85

row,SMILES,melting point [°C]
1,CS(=O)(=O)c1ccc(-n2cnc(Cl)c2-c2ccc(Cl)cc2)cc1,222 to 223
2,O=S1(=O)N=C(n2ccnc2)Nc2cc(F)c(F)cc21,264 to 266
3,CCOC(=O)c1ccc(OCC(O)COc2cccc(O)c2C(C)=O)cc1 (configuration not stated),104 to 106
4,COC(=O)c1cncc(O)c1C(=O)OC,136 to 137
5,CCOC(=O)C1CNc2cc(-c3ccccc3)ccc2O1 (configuration not stated),141 to 145
6,CC(C)(O)CONC(=O)c1ccc(F)c(F)c1Nc1ccc(I)cc1Cl,140 to 153
7,CCCCCC(CC(=O)Nc1cc(C(=O)O)ccc1C(C)(C)C)c1cccc(OC)c1OC (configuration not stated),146 to 147
8,CCCCCCCCCCCCCCc1cc(C(=O)O)c[nH]1,83 to 85
9,CNC(=O)n1nc(Oc2ccc(C(F)(F)F)cc2[N+](=O)[O-])c(C)c1C,117 to 119
10,CN(C(=O)C(C)(C)c1cc(C(F)(F)F)cc(C(F)(F)F)c1)c1ccc(Cl)cc1C(=O)c1ccccc1,89 to 91
11,CCC(=O)OCOC(=O)c1cc(S(N)(=O)=O)c(Cl)cc1NCc1ccco1,141 to 142
12,O=C1C(=CNCCO)Cc2cc(Cl)ccc21,164 to 166
13,O=C(CCNc1c(C(=O)O)[nH]c2cc(Cl)cc(Cl)c12)c1ccccc1Cc1ccccc1,280 to 283
14,c1ccc(CN2CC3OC(C4OCCO4)(C2)c2ccccc23)cc1 (configuration not stated),78 to 79.5
15,CC(C)NCC(O)COc1ccc(C2=NNC(=O)CC2)cc1 (configuration not stated),108 to 115
16,CC(C)c1sc(-c2nccs2)c2c1C(=O)CC(C)(C)C2,106 to 108
17,O=C(O)CCNC(=O)C(=Cc1ccccc1)CS,80
18,O=C1Nc2ccccc2SC1CCCCl (configuration not stated),98 to 99
19,CC(C)C1=CC(C(C)C)(S(=O)(=O)n2c(C3(O)C=CC(=O)C=C3)cc3ccccc32)CC(C(C)C)=C1 (configuration not stated),55 to 57
20,COc1cc2c(cc1Nc1ncc(Cl)c(Nc3ccccc3S(=O)(=O)N(C)C)n1)CCN(CC(=O)N(C)C)CC2,218 to 225
21,CCn1cc(C(=O)O)c(=O)c2cc(F)c(N3CCNC(c4cc(C)sc4C)C3)cc21 (configuration not stated),248 to 250
22,Cc1ccc([N+](=O)[O-])c(C=C(C(=O)O)C(=O)O)c1,180 to 182
23,O=C1CCC(c2ccc(-n3cnc(CO)c3)cc2)=NN1,214 to 215
24,COCc1cnc2c([N+](=O)[O-])cccc2c1Cl,91 to 94
25,NC(=NCCCc1c[nH]cn1)N(CCN(Cc1ccc(Cl)cc1)c1ccccn1)C(=O)c1ccccc1,166 to 167

row,SMILES,melting point [°C]
1,CCCCNS(=O)(=O)c1cc(C(=O)O)cc(NCc2ccccc2)c1Oc1ccccc1,212
2,c1cc(Oc2ccc3c(c2)CCN3)ccn1,116 to 118
3,CCOC(=O)c1cn2c3c(c(F)c(F)cc3c1=O)OCC2COC(=O)c1cc([N+](=O)[O-])cc([N+](=O)[O-])c1 (configuration not stated),240 to 242
4,O=C(O)Cc1ccc(NC(=O)C(COc2ccccc2)NS(=O)(=O)c2ccc(Cl)cc2)cc1 (racemic),190 to 192
5,NS(=O)(=O)c1cc2c(s1)S(=O)(=O)N(CCO)C(CN1CCOCC1)=C2,104 to 108
6,N#CC1=C(c2ccccc2)Oc2ccccc2O1,85 to 86
7,Nc1ccc(Oc2ccc3cc(Oc4ccc(N)c(O)c4)ccc3c2)cc1O,239 to 241
8,O=C(Nc1ccc(C(=O)O)cc1)OCCCCC1c2ccccc2-c2ccccc21,146 to 149
9,CCOc1ccccc1NC=C1C(=O)N(c2ccc(S(=O)(=O)N(CC)CC)cc2)N=C1C,170
10,COc1ccc(-c2ncn(C)c2-c2ccc(OC)cc2)cc1,122
11,O=C(O)C1CCc2c(c3ccccc3n2C(=O)c2ccc(-c3ccccc3)cc2)C1 (configuration not stated),212 to 213
12,CCOc1cc2c(cc1OCC)C(c1ccccc1)=NCC(=O)N2,233 to 236
13,FC(F)(F)c1cccc(-c2ccn3cnnc3n2)c1,202 to 203
14,CCOC(=O)C1=C(C)N2CCNC2=C(C(=O)OCC)C1C (configuration not stated),138
15,Cc1cc(S(=O)(=O)Nc2cccnc2Nc2ccccc2)c(C)cc1Cl,153 to 154
16,C=Cc1ccc2c(n1)COC(c1ccccc1)O2 (configuration not stated),54 to 57
17,Cc1cccc(-c2[nH]c(C(C)C)nc2-c2cccc(-c3cccc(NS(C)(=O)=O)c3)c2)n1,108 to 112
18,O=C(O)CNC1=Nc2ccccc2C(c2ccccc2)=NC1NC(=O)Nc1ccc(Cl)cc1 (configuration not stated),186
19,c1ccc(Nc2nc(-c3cn[nH]c3)c(N3CCCCC3)s2)nc1,238
20,N#Cc1cnc2cc(-c3csc(CN4CCOCC4)c3)ccc2c1Nc1ccc(Oc2ccccc2)cc1,221 to 223
21,Nc1ccc(NC(=O)Nn2cnc3ccccc3c2=O)cc1,> 305
22,CCCCCc1cnc(-c2ccc(SC)cc2)nc1,52
23,Cn1nccc1CCS(=O)Cc1ccc(OCc2coc(/C=C/c3ccc(OC(F)(F)F)cc3)n2)cc1 (configuration not stated),138 to 139
24,CCCN(CCC)S(=O)(=O)c1ccc(C(=O)c2cc3c(cc2C)OC(C(=O)OCC)O3)cc1 (configuration not stated),97 to 99
25,COP(=O)(Cc1cc(C)c(C)cc1CP(=O)(OC)OC)OC,66 to 69

row,SMILES,melting point [°C]
1,COc1cc(Nc2nccc(-c3sc(N4C=CC=NC4)nc3C)n2)ccc1N1CCOCC1,212 to 214
2,CCOC(=O)Cc1ccnc2c(NC(=O)c3c(Cl)cccc3Cl)cccc12,150 to 152
3,O=C1c2cccc3cc4c([N+](=O)[O-])cccc4c(c23)C(=O)N1CCNCCCNCCN1C(=O)c2cccc3cc4c([N+](=O)[O-])cccc4c(c23)C1=O,> 340
4,COC(=O)c1cccc(-c2nc(-c3cccc(C(F)(F)F)c3)cs2)c1,105 to 106
5,"CN1C(=O)CCC2(C)c3ccc(NC(=O)c4ccccc4)cc3CCC12 (single isomer, unassigned; (+))",220 to 222
6,Cc1oc(-c2ccccc2)nc1COc1cccc(CSc2cccc(CCC(=O)O)c2)c1,120 to 121
7,Cc1c(CC(=O)O)c2cc(OCc3csc(-c4ccc(C(F)(F)F)cc4)n3)ccc2n1Cc1ccc(Cl)cc1,196 to 197
8,Cc1ccc(-c2ccc3c(c2)C=C(C(=O)Nc2ccc(CN4CCCCC4)cc2)CC(c2ccccc2)O3)cc1 (configuration not stated),210 to 211
9,N#CSc1ccc(N)c(F)c1,36 to 38
10,CC(=O)Nc1cc2c(cc1[N+](=O)[O-])OC(C)(C)[C@@H](O)[C@@H]2NC(C)=O (relative stereo),244 to 246
11,CSc1ccc(Oc2ccc([N+](=O)[O-])cc2)c(C)c1,81.6 to 84.4
12,O=C(c1cccs1)c1cnn2c(-c3cccc(-c4nnn(CCO)n4)c3)ccnc12,134
13,CNc1nc(-c2ccc(OC)c(OC)c2)cs1,120 to 123
14,CC1(Cn2nc(-c3ccc(OC(F)(F)F)cc3)oc2=O)Cn2cc([N+](=O)[O-])nc2O1 (configuration not stated),146 to 148
15,O=C1CCn2c(-c3ccccc3)nc3c(Cl)ccc1c32,206 to 209
16,CC(=O)CN1C(=O)c2ccc3ccccc3c2S1(=O)=O,163 to 165
17,COc1ccc2c(c1)c(=O)n1nc(C#N)cc1n2C,316 to 320
18,CC(=O)Nc1nc(O)c2cc(C=Cc3ccc(C(=O)O)cc3)cnc2n1,> 300
19,O[C@@H]1CNCC[C@H]1Oc1ccc2c(c1)CCCC2 (relative stereo),125 to 127
20,CC(C)(C)OC(=O)CC(=O)c1ccc(C#N)s1,78
21,CCOP(=O)(OCC)C(O)c1ccc([N+](=O)[O-])cc1 (configuration not stated),94 to 95
22,COC(=O)C(NCc1ccccc1)c1c[nH]c2ccccc12 (configuration not stated),91.5 to 93
